# Results reported in US20150079000A1, “Labelled Quinoxaline Derivatives as Multimodal Radiopharmaceuticals and Their Precursors” (INSTITUT NATIONAL DE LA SANTET DE LA RECHERCHE MEDICALE, priority 2012, published 2015).
# How the values were obtained:
# [1] = radiochemical stability of the radiotracer after preparation; format: physicochemical
# B16BL6 tumour = test: PET imaging in B16BL6 tumour bearing mice; format: in vivo, C57BL/6J mice; settings: 1 h p.i., day-15
# Method: (§1) All our studies were performed in accordance with French and European Economic Community (86-609, EEC) guidelines for care of laboratory animals. Protocols were performed under the authorization of the French Direction des Services Veterinaires (authorization no. CE 86-12). Male C57BL/6J mice were originating from Charles River laboratories and maintained at 21° C. with a 12 h/12 h light/dark cycle, fed with a breeding diet (diet A04 from Safe, Villemoisson, France) and received water ad libitum. For transplantation B16BL6 cell suspension were grown in a monolayer culture to confluence, after which cells were trypsinized, washed with phosphate buffer saline (PBS) and they were resuspended in PBS. Mice were anesthetized by isoflurane (4% for induction and 2±0.5% for maintaining in oxygen flux) inhalation. The primary tumour model was induced by subcutaneous injection of 3×10^5 melanoma B16B16 cells in 0.1 mL on the right shoulder of mice.
# Whole-body PET scans were acquired 1 h after bolus injection of […] of the appropriate [^18F]-compound in a volume of 0.15 ml via the tail vein. Mice were anesthetized by intraperitoneal (i.p.) administration (200 μL/mouse) of a ketamine-xylazine mixture in saline: ketamine (100 mg/kg, Imalgene™, Rhône Mérieux, Lyon, France) and xylazine (10 mg/kg, Rompun™, Bayer, France) before radiotracer injection and imaged by using a small-animal PET device, eXplore Vista microPET instrument (GE Healthcare). PET images were acquired by using static mode during 20 min. The acquired data were reconstructed using the 2-Dimensional ordered-subsets expectation maximization (OSEM) algorithm and corrected from decay, scatter and randoms. No corrections were applied for partial volume or attenuation.
# Regional tracer uptake was quantified by standard region-of-interest (ROI) analysis with eXplore Vista software package. A manual 2D-ROI was drawn around the tumour in each slice where tumour was visible, and on several subsequent coronal planes containing muscle tissue at the forelimb. Results are expressed by percentage of injected dose per gram of tissue (% ID/g).
# PET imaging was performed 1 h post injection of tracers in B16BL6 tumour bearing mice at day-15 after tumours cell inoculation.
# [2] = tested on: B16 murine melanoma tumours; test: Ex vivo biodistribution of [18F]-labelled compounds; format: in vivo, C57BL/6J mice
# Method: as §1
# Ex vivo biodistribution studies: An ex vivo biodistribution study was performed for better comparison of [^18F](1) and [^18F](5). Experimentations were undertaken at day-10 or day-14 after cell inoculation (n=3-6/group). […] Tumours and major organs and tissues were promptly excised, harvested, weighted and their radioactivity counted using a calibrated γ-counter with a 400 to 600 keV energy window. After radioactive decay correction, results were expressed as percentage of injected dose per gram of tissue (% ID/g).
compound,measurement,setting,value
CCN(CCNC(=O)c1cnc2cc(I)ccc2n1)CCOCCOCCOCC[18F] [[^18F](1)],radiochemically stable at room temperature after preparation,[1],at least 24 h
same,eyes uptake,B16BL6 tumour,10.50±2.95 % ID/g
same,intestine uptake,B16BL6 tumour,4.07±1.39 % ID/g
same,muscles activity,B16BL6 tumour,1.37±0.37 % ID/g
same,pigmented spleen uptake,B16BL6 tumour,7.38±0.73 % ID/g
same,tumour uptake,B16BL6 tumour,14.33±2.11 % ID/g
same,tumour/muscle ratio,B16BL6 tumour,11.04±2.87
same,% ID/g (tumour),[2]; 1 h p.i.,14.05 ± 1.42 % ID/g
same,% ID/g Blood,[2]; 1 h p.i.,1.42 ± 0.32 % ID/g
same,% ID/g Bones,[2]; 1 h p.i.,1.40±0.10 % ID/g
same,% ID/g Brain,[2]; 1 h p.i.,1.82 ± 0.08 % ID/g
same,% ID/g Ceacum,[2]; 1 h p.i.,7.27 ± 0.62 % ID/g
same,% ID/g Colon + faeces,[2]; 1 h p.i.,7.17 ± 2.93 % ID/g
same,% ID/g Eyes,[2]; 1 h p.i.,18.36 ± 4.74 % ID/g
same,% ID/g Heart,[2]; 1 h p.i.,2.72 ± 0.18 % ID/g
same,% ID/g Kidney,[2]; 1 h p.i.,3.46 ± 0.53 % ID/g
same,% ID/g Liver,[2]; 1 h p.i.,2.56 ± 0.22 % ID/g
same,% ID/g Lung,[2]; 1 h p.i.,1.86 ± 0.15 % ID/g
same,% ID/g Muscle,[2]; 1 h p.i.,1.17 ± 0.12 % ID/g
same,% ID/g Pancreas,[2]; 1 h p.i.,2.09 ± 0.42 % ID/g
same,% ID/g Skin,[2]; 1 h p.i.,1.44 ± 0.19 % ID/g
same,% ID/g Small intestine,[2]; 1 h p.i.,7.58 ± 1.80 % ID/g
same,% ID/g Spleen,[2]; 1 h p.i.,3.72 ± 1.49 % ID/g
same,% ID/g Stomach,[2]; 1 h p.i.,4.41 ± 1.36 % ID/g
same,TBR Tumour-to-Blood Ratio,[2]; 1 h p.i.,10.24 ± 2.83
same,TBoR Tumour-to-Bone Ratio,[2]; 1 h p.i.,10.11 ± 1.87
same,TMR Tumour-to-Muscle Ratio,[2]; 1 h p.i.,12.12 ± 2.29
same,% ID/g (tumour),[2]; 2 h p.i.,13.07 ± 1.22 % ID/g
same,% ID/g Blood,[2]; 2 h p.i.,1.12 ± 0.24 % ID/g
same,% ID/g Bones,[2]; 2 h p.i.,1.96 ± 0.51 % ID/g
same,% ID/g Brain,[2]; 2 h p.i.,1.39 ± 0.25 % ID/g
same,% ID/g Ceacum,[2]; 2 h p.i.,8.94 ± 1.78 % ID/g
same,% ID/g Colon + faeces,[2]; 2 h p.i.,6.05 ± 1.72 % ID/g
same,% ID/g Eyes,[2]; 2 h p.i.,18.17 ± 3.15 % ID/g
same,% ID/g Heart,[2]; 2 h p.i.,2.14 ± 0.33 % ID/g
same,% ID/g Kidney,[2]; 2 h p.i.,2.18 ± 0.43 % ID/g
same,% ID/g Liver,[2]; 2 h p.i.,1.88 ± 0.34 % ID/g
same,% ID/g Lung,[2]; 2 h p.i.,1.65 ± 0.11 % ID/g
same,% ID/g Muscle,[2]; 2 h p.i.,0.92 ± 0.15 % ID/g
same,% ID/g Pancreas,[2]; 2 h p.i.,1.33 ± 0.28 % ID/g
same,% ID/g Skin,[2]; 2 h p.i.,1.51 ± 0.53 % ID/g
same,% ID/g Small intestine,[2]; 2 h p.i.,4.28 ± 1.18 % ID/g
same,% ID/g Spleen,[2]; 2 h p.i.,2.88 ± 2.11 % ID/g
same,% ID/g Stomach,[2]; 2 h p.i.,2.48 ± 0.88 % ID/g
same,TBR Tumour-to-Blood Ratio,[2]; 2 h p.i.,12.19 ± 3.32
same,TBoR Tumour-to-Bone Ratio,[2]; 2 h p.i.,7.13 ± 2.21
same,TMR Tumour-to-Muscle Ratio,[2]; 2 h p.i.,14.46 ± 2.62
same,% ID/g (tumour),[2]; 3 h p.i.,11.55±1.24 % ID/g
same,% ID/g Blood,[2]; 3 h p.i.,0.80 ± 0.07 % ID/g
same,% ID/g Bones,[2]; 3 h p.i.,3.27 ± 0.70 % ID/g
same,% ID/g Brain,[2]; 3 h p.i.,1.37 ± 0.35 % ID/g
same,% ID/g Ceacum,[2]; 3 h p.i.,10.79 ± 1.54 % ID/g
same,% ID/g Colon + faeces,[2]; 3 h p.i.,8.09 ± 5.04 % ID/g
same,% ID/g Eyes,[2]; 3 h p.i.,17.96 ± 2.73 % ID/g
same,% ID/g Heart,[2]; 3 h p.i.,2.32 ± 0.50 % ID/g
same,% ID/g Kidney,[2]; 3 h p.i.,2.19 ± 0.36 % ID/g
same,% ID/g Liver,[2]; 3 h p.i.,1.99 ± 0.45 % ID/g
same,% ID/g Lung,[2]; 3 h p.i.,1.60 ± 0.09 % ID/g
same,% ID/g Muscle,[2]; 3 h p.i.,0.81 ± 0.10 % ID/g
same,% ID/g Pancreas,[2]; 3 h p.i.,1.33 ± 0.35 % ID/g
same,% ID/g Skin,[2]; 3 h p.i.,1.05 ± 0.12 % ID/g
same,% ID/g Small intestine,[2]; 3 h p.i.,3.91 ± 1.05 % ID/g
same,% ID/g Spleen,[2]; 3 h p.i.,1.87 ± 0.38 % ID/g
same,% ID/g Stomach,[2]; 3 h p.i.,2.81 ± 2.23 % ID/g
same,TBR Tumour-to-Blood Ratio,[2]; 3 h p.i.,14.43±1.75
same,TBoR Tumour-to-Bone Ratio,[2]; 3 h p.i.,3.70 ± 1.17
same,TMR Tumour-to-Muscle Ratio,[2]; 3 h p.i.,14.46±3.06
same,in vivo defluorination,[2]; 3 h p.i.,Partial in vivo defluorinations
